This note sets out measurements from ChEMBL document CHEMBL5096149, “Recent Update on Targeting c-MYC G-Quadruplexes by Small Molecules for Anticancer Therapeutics” (J Med Chem, 2021).

A word on the IC50: it is the concentration needed to halve the response being measured. The ΔTm is the change in melting temperature against a reference sample.

In data set [1] the test system is Quadruplex DNA. The experiment in a line: Binding affinity to c-MYC G-quadruplex DNA (unknown origin) assessed as association constant by fluorescence spectroscopy. It counts as nucleic-acid assay.
Another data set concerns L-363. In words: Cytotoxicity against human L-363 cells assessed as inhibition of cell viability incubated for 72 hrs by MTS assay. It counts as functional, cell-based. The following applies: L-363, 72 h. (Tetrazolium dyes change colour on reduction, which living cells bring about.)
Data set [2] can be described thus: Cytotoxicity against human ARD cells assessed as inhibition of cell viability incubated for 72 hrs by MTS assay. In kind it is functional, cell-based.
The nature of data set [3]: Cytotoxicity against human JIM1 cells assessed as inhibition of cell viability incubated for 72 hrs by MTS assay. It counts as functional, cell-based. Particulars: JIM1, 72 h.
Data set [4] is described as follows: Cytotoxicity against human KMM-1 cells assessed as inhibition of cell viability incubated for 72 hrs by MTS assay. It counts as functional, cell-based. Particulars: KMM-1, 72 h.
Another data set relates to KMS-12-PE. In words: Cytotoxicity against human KMS-12-PE cells assessed as inhibition of cell viability incubated for 72 hrs by MTS assay. In kind it is functional, cell-based.
Data set [5] is described as follows: Cytotoxicity against human KMS-27 cells assessed as inhibition of cell viability incubated for 72 hrs by MTS assay. The following applies: KMS-27, 72 h. It counts as functional, cell-based.
Another data set relates to AMO1. The experiment in a line: Cytotoxicity against human AMO1 cells assessed as inhibition of cell viability incubated for 72 hrs by MTS assay. It counts as functional, cell-based. The following applies: AMO1, 72 h.
The test system of data set [6] is Quadruplex DNA. The experiment in a line: Binding affinity to c-MYC G-quadruplex DNA (unknown origin) assessed as association rate constant by surface plasmon resonance analysis. In kind it is nucleic-acid assay. In general terms: In SPR one partner is held on a chip, and binding of the other changes the refractive index at the surface.
In data set [7] the test system is Quadruplex DNA. In words: Thermal stabilization of c-MYC G-quadruplex DNA (unknown origin) assessed as change in melting temperature at 1:4 ratio by circular dichroism spectroscopy. In kind it is nucleic-acid assay. In general terms: CD spectra are sensitive to the conformation of chiral molecules.
Data set [8] in a line: Cytotoxicity against human OPM-1 cells assessed as inhibition of cell viability incubated for 72 hrs by MTS assay. It counts as functional, cell-based. Particulars: OPM-1, 72 h.
A short description of data set [9]: Cytotoxicity against human Karpas-417 cells assessed as inhibition of cell viability incubated for 72 hrs by MTS assay. In kind it is functional, cell-based. Particulars: Karpas-417, 72 h.
A further data set deals with NCI-H929. In words: Cytotoxicity against human NCI-H929 cells assessed as inhibition of cell viability incubated for 72 hrs by MTS assay. In kind it is functional, cell-based. Particulars: NCI-H929, 72 h.
Another data set has as its system CA46. In words: Cytotoxicity against human CA46 cells assessed as inhibition of cell viability incubated for 72 hrs by MTS assay. In kind it is functional, cell-based. Particulars: CA46, 72 h.
Data set [10] in a line: Cytotoxicity against human HEK293T cells assessed as inhibition of cell viability incubated for 72 hrs by MTS assay. It counts as toxicity, cell-based, HEK-293T.
A short description of data set [11]: Cytotoxicity against human Fibroblast cells assessed as inhibition of cell viability incubated for 72 hrs by MTS assay. It counts as toxicity, cell-based.
Data set [12] relates to Quadruplex DNA. In words: Thermal stabilization of c-MYC G-quadruplex DNA (unknown origin) assessed as change in melting temperature at 1:5 ratio by FRET melting assay. It counts as nucleic-acid assay.
The test system of data set [13] is HeLa. In words: Antiproliferative activity against human HeLa cells assessed as inhibition of cell growth by XTT assay. It counts as functional, cell-based.
The subject of a further data set is A549. The experiment in a line: Antiproliferative activity against human A549 cells assessed as inhibition of cell growth by XTT assay. In kind it is functional, cell-based.
The nature of data set [14]: Antiproliferative activity against human Kidney epithelial cells assessed as inhibition of cell growth by XTT assay. It counts as toxicity, cell-based.
Data set [15] deals with Quadruplex DNA. In words: Binding affinity to c-MYC G-quadruplex DNA (unknown origin) assessed as association rate constant by isothermal titration calorimetry method. It counts as nucleic-acid assay.
A further data set relates to MCF7. In words: Antiproliferative activity against human MCF7 cells assessed as inhibition of cell growth by XTT assay. In kind it is functional, cell-based.
The next data set concerns HT-1080. In words: Antiproliferative activity against human HT-1080 cells assessed as inhibition of cell growth by celltiter-glo luminescent cell viability assay. In kind it is functional, cell-based.
The test system of data set [16] is Quadruplex DNA. In words: Binding affinity to human c-MYC G-quadruplex (Pu24T) DNA assessed as first order binding constant by isothermal titration calorimetry method. It counts as nucleic-acid assay.
Data set [17] concerns Quadruplex DNA. In words: Binding affinity to human c-MYC G-quadruplex (Pu24T) DNA assessed as second order binding constant by isothermal titration calorimetry method. It counts as nucleic-acid assay.
In data set [18] the test system is Quadruplex DNA. The experiment in a line: Binding affinity to human c-MYC G-quadruplex (Pu24T) DNA assessed as first order binding constant by fluorescence spectroscopy. It counts as nucleic-acid assay.
The subject of data set [19] is Quadruplex DNA. In words: Binding affinity to human c-MYC G-quadruplex (Pu24T) DNA assessed as second order binding constant by fluorescence spectroscopy. In kind it is nucleic-acid assay.
For data set [20], the system named is Quadruplex DNA. The experiment in a line: Thermal stabilization of human c-MYC G-quadruplex (Pu24T) DNA assessed as change in melting temperature at 1:2 ratio by circular dichroism spectroscopy. In kind it is nucleic-acid assay.
The test system of data set [21] is HeLa. In words: Cytotoxicity against human HeLa cells assessed as inhibition of cell viability incubated for 48 hrs by MTT assay. In kind it is functional, cell-based.
Data set [22] is described as follows: Cytotoxicity against human HEK cells assessed as inhibition of cell viability incubated for 48 hrs by MTT assay. In kind it is functional, cell-based. Particulars: HEK293, 48 h.

For the compound `Cc1oc2ccc(O)c(CN3CCCCCC3)c2c1C(=O)Nc1ccc(C(F)(F)F)cc1`, the Ka with Quadruplex DNA [1] was 1.06 10^5/M; in the data set on Quadruplex DNA [6], 7.14 10^5/M. The IC50 was 3.4 µM with L-363; 5.75 µM in [2]; 6.35 µM in data set [3]; 4.13 µM in data set [4]; 5.3 µM in the data set with KMS-12-PE; 5.06 µM in data set [5]. Further, the IC50 in the data set with AMO1 was found to be 5.92 µM; in data set [8], 6.48 µM; in [9], 4.8 µM; with NCI-H929, 4.89 µM; with CA46 it was 9.2 µM. Moreover, the ΔTm with Quadruplex DNA [7] is 7.5 °C. Besides, the IC50 at 72 h in data set [10] worked out at 34 µM; in data set [11], 19.6 µM.

Consider `CN(C)CCCOc1cc(C(=O)NCc2cn(-c3cccc(NC(=O)C4CCCN4)c3)nn2)cc(C(=O)NCc2cn(-c3cccc(NC(=O)C4CCCN4)c3)nn2)c1` (stereo not drawn), for which the Ka is 5.55 10^5/M in the data set on Quadruplex DNA [1] and 7 10^5/M in the data set with Quadruplex DNA [15]. For the same compound, the ΔTm in the data set on Quadruplex DNA [12] was 15 °C. In addition, the half-maximal inhibitory concentration (IC50) in the data set on HeLa [13] was 8.3 µM; with A549, 9.2 µM; in data set [14] it was greater than 50 µM; with MCF7, 3.8 µM.

Take `CN(C)c1cccc2c(S(=O)(=O)N(Cc3cn(C(C)(C)C(=O)OC[C@H]4O[C@@H](n5cnc6c(=O)[nH]c(N)nc65)[C@@H]5OC(C)(C)O[C@@H]54)nn3)Cc3cn(C(C)(C)C(=O)OC[C@H]4O[C@@H](n5cnc6c(=O)[nH]c(N)nc65)[C@@H]5OC(C)(C)O[C@@H]54)nn3)cccc12`: in the data set on Quadruplex DNA [1], the Ka is 4.8 10^7/M. Besides, in the data set with Quadruplex DNA [12], the ΔTm worked out at 12.6 °C. Also, the IC50 in the data set with HT-1080 was determined as 18.9 µM.

In the case of `O=c1c(O)c(-c2ccc(O)c(O)c2)oc2cc(O)cc(O)c12` [QUERCETIN], the K is 1.57 10^7/M in the data set on Quadruplex DNA [16], 8.5 10^5/M with Quadruplex DNA [17], 0.72 10^7/M in the data set on Quadruplex DNA [18] and 1.2 10^5/M in the data set with Quadruplex DNA [19]. Besides, the ΔTm in the data set on Quadruplex DNA [20] was found to be 10.3 °C. In addition, the results for the IC50 (in the data set with HeLa [21]; in [22]) were 4 µM and 0.12 µM, respectively.
